Here are results for 19 compounds from patent US8569302B2, “Inhibitors of flaviviridae viruses” (Gilead Sciences, Inc., priority 2009, dated 2013).

The test system of this experiment is human hepatoma Huh-7 cell line harboring a HCV replicon. Put plainly: HCV replicon assay (inhibition of viral replication, luciferase readout). The class given is cell-based. The note with it: Hepatitis C virus, 72 h, Huh-7 HCV replicon cells, 3 days incubation. As for the experimental part:
The anti-HCV activity of the compounds of this invention was tested in a human hepatoma Huh-7 cell line harboring a HCV replicon. The assay comprised the following steps:
Step 1: Compound Preparation and Serial Dilution.
Serial dilution was performed in 100% DMSO in a 384-well plate. A solution containing a compound at 225-fold concentration of the starting final serial dilution concentration was prepared in 100% DMSO and 15 μL added to the pre-specified wells in column 3 or 13 of a polypropylene 384-well plate. The rest of the 384-well plate was filled with 10 μL 100% DMSO except for columns 23 and 24, where 10 μL of 500 μM a HCV protease inhibitor (ITMN-191) in 100% DMSO was added. The HCV protease inhibitor was used a control of 100% inhibition of HCV replication. The plate was then placed on a Biomek FX Workstation to start the serial dilution. The serial dilution was performed for ten cycles of 3-fold dilution from column 3 to 12 or from column 13 to 22.
Step 2: Cell Culture Plate Preparation and Compound Addition
To each well of a black polypropylene 384-well plate, 90 μL of cell media containing 1600 suspended Huh-7 HCV replicon cells was added with a Biotek uFlow Workstation. A volume of 0.4 μL of the compound solution was transferred from the serial dilution plate to the cell culture plate on a Biomek FX Workstation. The DMSO concentration in the final assay condition was 0.44%. The plates were incubated for 3 days at 37° C. with 5% CO2 and 85% humidity.
Step 3: Detection of Cytotoxicity and Inhibition of Viral Replication
a) Assessment of cytotoxicity: The media in the 384-well cell culture plate was aspirated with a Biotek EL405 plate-washer. A volume of 50 μL of a solution containing 400 nM Calcein AM in 100% PBS was added to each well of the plate with a Biotek uFlow Workstation. The plate was incubated for 30 minutes at room temperature before the fluorescence signal ([…]) was measured with a Perkin Elmer Envision Plate Reader.
b) Assessment of inhibition of viral replication: The calcein-PBS solution in the 384-well cell culture plate was aspirated with a Biotek EL405 plate-washer. A volume of 20 μL of Dual-Glo luciferase buffer (Promega, Dual-Glo Luciferase Assay Reagent, cat. #E298B) was added to each well of the plate with a Biotek uFlow Workstation. The plate was incubated for 10 minutes at room temperature. A volume of 20 μL of a solution containing 1:100 mixture of Dual-Glo Stop & Glo substrate (Promega, Dual-Glo Luciferase Assay Reagent, cat. #E313B) and Dual-Glo Stop & Glo buffer (Promega, Dual-Glo Luciferase Assay Reagent, cat. #E314B) was then added to each well of the plate with a Biotek uFlow Workstation. The plate was incubated at room temperature for 10 minutes before the luminescence signal was measured with a Perkin Elmer Envision Plate Reader.
The percent cytotoxicity was determined by calcein AM conversion to fluorescent product. The average fluorescent signal from the DMSO control wells was defined as 100% nontoxic. The individual fluorescent signal from testing compound treated well was divided by the average signal from DMSO control wells and then multiplied by 100% to get the percent viability. The percent anti-HCV replication activity was determined by the luminescence signal from the testing well compared to DMSO control wells. The background signal was determined by the average luminescence signal from the HCV protease inhibitor treated wells and was subtracted from the signal from the testing wells as well as the DMSO control wells. Following 3-fold serial dilutions, the EC50 and CC50 values were calculated by fitting % inhibition at each concentration to the following equation: % inhibition=100%/[EC50/[I])^b+1]
Where b is Hill's coefficient. See, for reference, Hill, A. V., The Possible Effects of the Aggregation of the Molecules of Hæmoglobin on its Dissociation Curves, J. Physiol. 40: iv-vii. (1910). […]
In turn, `CC(C)(C)C#Cc1cc(N(C(=O)[C@H]2CC[C@H](C)CC2)[C@H]2CC[C@@H](Sc3nncs3)CC2)c(C(=O)O)s1` [Compound 105, 3-(N-(4-(1,3,4-Thiadiazol-2-ylthio)cyclohexyl)-4-methylcyclohexanecarboxamido)-5-(3,3-dimethylbut-1-ynyl)thiophene-2-carboxylic acid] returned an inhibition at 2 µM of 99.9%.
In turn, `CC(C)(C)C#Cc1cc(N(C(=O)[C@H]2CC[C@H](C)CC2)C2CCC(Oc3cc[n+]([O-])cc3)CC2)c(C(=O)O)s1` (stereo partly shown) [Compound 157, 5-(3,3-Dimethylbut-1-ynyl)-3-(4-methyl-N-(4-(pyridin-4-yloxy-N-oxide)cyclohexyl)cyclohexanecarboxamido)thiophene-2-carboxylic acid] registered an inhibition at 2 µM of 99.9%.
Turning to `CC(C)(C)C#Cc1cc(N(C(=O)[C@H]2CC[C@H](C)CC2)[C@H]2CC[C@H](Oc3ccc4nccn4n3)CC2)c(C(=O)O)s1` [Compound 176, Sodium 5-(3,3-dimethylbut-1-ynyl)-3-(N-(4-(imidazo[1,2-b]pyridazin-6-yloxy)cyclohexyl)-4-methylcyclohexanecarboxamido)thiophene-2-carboxylate], the inhibition at 2 µM turned out to be 99.8%.
Take `CC(C)(C)C#Cc1cc(N(C(=O)[C@H]2CC[C@H](C)CC2)[C@H]2C[C@@H](Oc3ncccn3)C2)c(C(=O)O)s1` [Compound 22, 5-(3,3-Dimethyl-but-1-ynyl)-3-{(trans-4-methyl-cyclohexanecarbonyl)-[cis-3-(pyrimidin-2-yloxy)-cyclobutyl]-amino}-thiophene-2-carboxylic acid]: the inhibition at 2 µM is 96.2%.
The compound `C[C@H]1CC[C@H](C(=O)N(c2cc(C#CC3(C(F)(F)F)CC3)sc2C(=O)O)[C@H]2CC[C@@H](OC3CCOC3)CC2)CC1` (stereo partly drawn) [Compound 346, 3-((1r,4R)-4-methyl-N-((1s,4S)-4-(tetrahydrofuran-3-yloxy)cyclohexyl)cyclohexanecarboxamido)-5-(2-(1-(trifluoromethyl)cyclopropyl)ethynyl)thiophene-2-carboxylic acid] gave an inhibition at 2 µM of 99.5%.
`CC(C)(C)C#Cc1cc(N(C(=O)[C@H]2CC[C@H](C)CC2)[C@H]2CC[C@H](Sc3ncccn3)CC2)c(C(=O)O)s1` [Compound 100, 5-(3,3-Dimethylbut-1-ynyl)-3-(4-methyl-N-(4-(pyrimidin-2-ylthio)cyclohexyl)cyclohexanecarboxamido)thiophene-2-carboxylic acid] came in with an inhibition at 2 µM of 99.9%.
Regarding `Cn1cnnc1S[C@H]1CC[C@H](N(c2cc(C#CC(C)(C)C)sc2C(=O)O)C(=O)[C@H]2CC[C@H](C)CC2)CC1` [Compound 84, 5-(3,3-dimethylbut-1-ynyl)-3-(4-methyl-N-(4-(4-methyl-4H-1,2,4-triazol-3-ylthio)cyclohexyl)cyclohexanecarboxamido)thiophene-2-carboxylic acid], the inhibition at 2 µM amounted to 99.9%.
Compound `CC1=CCC(C(=O)N(c2cc(C#CC(C)(C)C)sc2C(=O)O)[C@H]2CC[C@H](O[C@@H]3CCOC3)CC2)[C@@H](C)C1` (single isomer, unassigned) [Compound 307, 5-(3,3-Dimethyl-but-1-ynyl)-3-{(4,6S-dimethyl-cyclohex-3-enecarbonyl)-[4-(tetrahydro-furan-3R-yloxy)-trans-cyclohexyl]-amino}-thiophene-2-carboxylic acid] returned an inhibition at 2 µM of 100%.
As for `C=C1CCC(C(=O)N(c2cc(C#CC(C)(C)C)sc2C(=O)O)[C@H]2CC[C@H](Oc3cc(CN(C)C)ccn3)CC2)CC1` [Compound 325, 3-[[4-(4-dimethylaminomethyl-pyridin-2-yloxy)-cyclohexyl]-(4-methylene-cyclohexanecarbonyl)-amino]-5-(3,3-dimethyl-but-1-ynyl)-thiophene-2-carboxylic acid], 2 µM produced 100% inhibition.
`CC1CCC(C(=O)N(c2cc(C#CC(C)(C)C)sc2C(=O)O)[C@H]2CC[C@H](Oc3ccnc(CN(C)C)c3)CC2)CC1` (stereo partly shown) [Compound 200, 3-[[-4-(2-dimethylaminomethyl-pyridin-4-yloxy)-cyclohexyl]-(4-methyl-cyclohexanecarbonyl)-amino]-5-(3,3-dimethyl-but-1-ynyl)-thiophene-2-carboxylic acid]: at 2 µM the inhibition was 100%.
On to `CC(C)(C)C#Cc1cc(N(C(=O)[C@H]2CC[C@H](C)CC2)[C@H]2CC[C@H](Oc3cc(N4CCCC4)ncn3)CC2)c(C(=O)O)s1` [Compound 150, 5-(3,3-Dimethylbut-1-ynyl)-3-(4-methyl-N-(4-(6-(pyrrolidin-1-yl)pyrimidin-4-yloxy)cyclohexyl)cyclohexanecarboxamido)thiophene-2-carboxylic acid], for which the inhibition at 2 µM turned out to be 99.6%.
`CC(C)(C)C#Cc1cc(N(C(=O)[C@H]2CC[C@H](C)CC2)[C@H]2CCN(S(=O)(=O)c3cccs3)C2)c(C(=O)O)s1` [Compound 213, 5-(3,3-Dimethyl-but-1-ynyl)-3-{(4-methyl-cyclohexanecarbonyl)-[1-(thiophene-2-sulfonyl)-pyrrolidin-3-yl]-amino}-thiophene-2-carboxylic acid]: the inhibition at 2 µM came to 99.9%.
As to `CC1=CC[C@@H](C(=O)N(c2cc(C#CC(C)(C)C)sc2C(=O)O)[C@H]2CC[C@H](O[C@H]3CCOC3)CC2)CC1` [Compound 333], the inhibition at 2 µM stood at 100%.
With `C[C@@H]1CC[C@@H](C(=O)N(c2cc(C#CC(C)(C)C)sc2C(=O)O)[C@H]2CC[C@H](O[C@H]3CCOC3)CC2)[C@@H](O)C1` [Compound 309, 5-(3,3-dimethylbut-1-ynyl)-3-((1R,2S,4R)-2-hydroxy-4-methyl-N-(4-(tetrahydrofuran-3S-yloxy)cyclohexyl)cyclohexanecarboxamido)thiophene-2-carboxylic acid] the figure was 100%; with `CC1CCC(C(=O)N(CCOc2cccnc2)c2cc(C#CC(C)(C)C)sc2C(=O)O)CC1` (stereo not shown) [Compound 138], 99.7%; with `CC1CCC(C(=O)N(c2cc(C#CC(C)(C)C)sc2C(=O)O)[C@H]2CC[C@H](Oc3cc(CN(C)C)ccn3)CC2)CC1` (stereo partly shown) [Compound 29, 3-[[-4-(4-dimethylaminomethyl-pyridin-2-yloxy)-cyclohexyl]-(4-methyl-cyclohexanecarbonyl)-amino]-5-(3,3-Dimethyl-but-1-ynyl)-thiophene-2-carboxylic acid], 100%.
As to `CC(C)(C)C#Cc1cc(N(C(=O)[C@H]2CC[C@H](C)CC2)[C@H]2CCN(S(=O)(=O)c3cccnc3)C2)c(C(=O)O)s1` [Compound 216, 5-(3,3-Dimethyl-but-1-ynyl)-3-{(4-methyl-cyclohexanecarbonyl)-[1-(pyridine-3-sulfonyl)-pyrrolidin-3-yl]-amino}-thiophene-2-carboxylic acid], the inhibition at 2 µM was determined as 100%.
For `CC1CCC(C(=O)N(c2cc(C#CC(C)(C)C)sc2C(=O)O)[C@H]2CC[C@H](Oc3cc(CN4CCC(O)C4)ccn3)CC2)CC1` (stereo partly shown) [Compound 190, 3-[[-4-[4-(3-hydroxy-pyrrolidin-1-ylmethyl)-pyridin-2-yloxy]-cyclohexyl]-(4-methyl-cyclohexanecarbonyl)-amino]-5-(3,3-Dimethyl-but-1-ynyl)-thiophene-2-carboxylic acid], 2 µM produced 100% inhibition.
On to `CC1CCC(C(=O)N(c2cc(C#CC(C)(C)C)sc2C(=O)O)[C@H]2CC[C@H](Oc3cnccc3CN3CCC3)CC2)CC1` (stereo partly shown) [Compound 197, 3-[[-4-(4-azetidin-1-ylmethyl-pyridin-3-yloxy)-cyclohexyl]-(4-methyl-cyclohexanecarbonyl)-amino]-5-(3,3-dimethyl-but-1-ynyl)-thiophene-2-carboxylic acid], for which the inhibition at 2 µM was 99.9%.
